{
  "source": "patent US10849867B2",
  "about": "“Methods and compositions for treating conditions associated with an abnormal inflammatory response” (First Wave Bio, Inc., priority 2015, dated 2020)",
  "key": {"[1]": {"tested_on": "LPMC T cells", "assay": "LPMC T cell death, 7-AAD flow cytometry (Example 3)", "type": "cell-based, human", "experimental": "Objective. […] Model. The human LPMC model as described in Example 2 was used. Cell isolation and culture. Cell isolation and culture procedures were as detailed in Example 2. Treatment with Niclosamide. […] […] […] After treatment cells were exposed to 1 μM 7AAD then incubated a further 60 minutes at 37° C. Live cells and dead cells were enumerated by flow cytometer using a FACS Verse cytometer set to excite and measure emitted fluorescence of 7-AAD at appropriate wavelengths. Detecting viable and dead cells. 7-AAD is excluded from live cells but free to enter dead cells where it undergoes a spectral shift after interacting with cellular DNA. […] Use of this reagent allows viable cells and dead cells to be simultaneously enumerated. In order to specifically distinguish T cells from other cells in LPMCs, anti-CD3 monoclonal antibody labeled with FITC (excitation at 494 nm with emission detected at 521 nm) will be used. This antibody specifically binds human CD3 antigen that is selectively expressed on T cells. Cell viability and death was determined specifically in T cells by measuring 7-AAD fluorescence in cells labeled by anti-CD3 FITC. Calculation of T cell death. The fluorescence intensity of 7-AAD detected at 647 nm was measured specifically T the cell population that was first defined as described in Example 2 by FITC-anti-CD3 antibody fluorescence. […] For statistical comparisons, 95% confidence intervals were computed and graphed with the mean values."}, "[2]": {"tested_on": "lamina propria T cell (CD3+)", "assay": "Cell death in lamina propria T cell from active IBD, 7-AAD staining (FIG. 1)", "type": "cell-based, human", "details": "10 μM for 16 hours, LPMC from IBD subjects, versus DMSO", "experimental": "Cell death in lamina propria T cell (CD3+) was determined by measuring 7-AAD staining by flow cytometry. FIG. 1. […] Cell death in lamina propria T cell (CD3+) was determined by measuring 7-AAD staining by flow cytometry."}, "[3]": {"details": "cited from earlier work"}, "[4]": {"tested_on": "TNBS model of ulcerative colitis", "assay": "Murine TNBS model of ulcerative colitis, rectal versus intraperitoneal (FIG. 2)", "type": "in vivo"}, "[5]": {"tested_on": "human LPMCs T cells", "assay": "ΔΨm in human LPMC CD45+CD3+ T cells, JC-1 flow cytometry (Example 12)", "type": "cell-based", "details": "5 μM, 60 min, JC-1, relative to negative control", "excerpt": "The Model-Lamina propria mononuclear cells (LPMC) in the human intestine are comprised in part by T cells which mediate physiological and pathological processes including inflammatory bowel disease. LPMCs can be isolated from human tissue biopsies. After isolation […] cells remain viable ex vivo under appropriate culture conditions for periods of time that allow ex vivo experiments. These cells can be used to investigate mechanisms that regulate their mitochondrial function and survival They contain respiring mitochondria and as such their response to test agents may be assessed. Uncoupling is identified and quantified by a detecting a drop in the electrochemical gradient across the mitochondrial inner membrane (ΔΨm). […] The isolated cells were counted and checked for viability using 0.1% trypan blue (viability ranged from 86% to 94%). […] A flow cytometer FACSVerse flow cytometer and FACSSuite software [BD Biosciences] was used for quantification of JC-1 fluorescence in CD45+CD3+ cells. […] Consequently, mitochondrial depolarization is indicated by a decrease in the red/green fluorescence intensity ratio. […] LPMC CD45+CD3+ T cells were first defined by their fluorescence emission from labeling with eFluor® 450-anti-CD3 antibody and PerCP-Cyanine5.5-[…] antibody. The fluorescence intensity of JC-1 detected at 525 nm and 590 nm in the CD45+CD3+ T cell population was then measured. […]"}},
  "data": [
    {"smiles": "O=C(Nc1ccc([N+](=O)[O-])cc1Cl)c1cc(Cl)ccc1O", "note": "[Niclosamide, 5-chloro-N-(2-chloro-4-nitrophenyl)-2-hydroxybenzamide]", "values": [
      {"measurement": "LPMC T cell death", "setting": "[1]; 1-500 μM, 24 hours, 7-AAD in CD3+ cells", "result": "dose-related increase"},
      {"measurement": "concentrations that fail to induce T cell death", "setting": "[1]; LPMC T cells", "result": "below 5 μM"},
      {"measurement": "concentrations of niclosamide that significantly increase T cell death (p<0.05)", "setting": "[1]; relative to negative controls with vehicle alone", "result": "≥ 5", "unit": "µM"},
      {"measurement": "cell death in lamina propria T cell (CD3+)", "setting": "[2]", "result": "induces cell death"},
      {"measurement": "water solubility", "setting": "[3]; at 20° C.", "result": "5 to 8", "unit": "µg/mL"},
      {"measurement": "solubility in acetone", "setting": "[3]", "result": "soluble"},
      {"measurement": "solubility in ether, ethanol and chloroform", "setting": "[3]", "result": "sparingly soluble"},
      {"measurement": "efficacy in murine TNBS model of ulcerative colitis", "setting": "[4]; administered rectally (locally)", "result": "robust efficacy"},
      {"measurement": "efficacy in murine TNBS model of ulcerative colitis", "setting": "[4]; intraperitoneal injection (systemically)", "result": "not by intraperitoneal injection"},
      {"measurement": "change in ΔΨm in human LPMCs T cells", "setting": "[5]", "result": "decrease"}
    ]}
  ]
}
